Some test systems named below: A498; HT-29; U-251; A549; SK-MEL-28; IGROV-1; 786-0; SW-620; LOX IMVI; HOP-62; NCI-H522; MOLT-4; KM12; RPMI-8226; HCT-116; UACC-257; KM-20L2; SK-MEL-2; HCT-15.
What all share (experiment): NCI anticancer screen, dose series, 48 h

Structures are written as SMILES.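 48-hour exposure; five concentrations; linearly interpolated endpoints. GI50 = concentration required for 50% inhibition of growth.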 The source made the active and inactive calls. Rule as the data show it: active = GI50 up to about 1.1 µM and inactive = higher.

For the compound `CCCC[C@H](CCc1ccccc1)N(C(=O)OC)N1CCC[C@H]1COC`, the GI50 with A498 is 18.1 µM (inactive); with HT-29, 15.1 µM (inactive); in the assay with U-251, 15.4 µM (inactive); with A549 it was 24.8 µM (inactive); in the assay on SK-MEL-28, 19.9 µM (inactive); with IGROV-1, 20.9 µM (inactive). The GI50 in the assay on 786-0 was 21.4 µM (inactive); in the assay with SW-620, 16.3 µM (inactive); in the assay with LOX IMVI, 18.3 µM (inactive); with HOP-62 it was 23 µM (inactive); with NCI-H522, 14.1 µM (inactive); with MOLT-4 it was 24.2 µM (inactive). Also, the GI50 in the assay on KM12 was 18.8 µM (inactive); in the assay with RPMI-8226, 31.6 µM (inactive); with HCT-116, 13.6 µM (inactive); in the assay on UACC-257 it was 18 µM (inactive); in the assay on KM-20L2, 15.1 µM (inactive); with SK-MEL-2, 18.5 µM (inactive).

As for `Cc1c(C(=O)/C=C/c2ccc([N+](=O)[O-])cc2)[n+]([O-])c2ccccc2[n+]1[O-]`, the GI50 in the assay with A498 was > 100 µM (inactive); with HT-29, 96.6 µM (inactive); with U-251, 92.5 µM (inactive); in the assay with A549, > 100 µM (inactive); in the assay with SK-MEL-28, > 100 µM (inactive); with IGROV-1 it was 55.7 µM (inactive). For the same compound, the GI50 was 52.1 µM (inactive) in the assay with 786-0; 67 µM (inactive) in the assay with SW-620; 42.3 µM (inactive) in the assay on LOX IMVI; > 100 µM (inactive) in the assay on HOP-62; 20.5 µM (inactive) in the assay with NCI-H522; 20.7 µM (inactive) with MOLT-4. The GI50 in the assay on KM12 is 93.5 µM (inactive); in the assay on RPMI-8226, 33.6 µM (inactive); in the assay on HCT-116, 48.4 µM (inactive); in the assay with UACC-257, > 100 µM (inactive); with KM-20L2 it was > 100 µM (inactive).

Take `O=C(O)C12C3C4C1C1C2C3C1(Br)C41OCCO1` (centres undefined): the GI50 in the assay with A498, in the assay with HT-29, with U-251, with A549, in the assay on SK-MEL-28 and with IGROV-1 was > 100 µM (inactive) throughout. Also, the GI50 with 786-0, in the assay on SW-620, in the assay with LOX IMVI, in the assay on HOP-62, in the assay with NCI-H522 and in the assay on MOLT-4 was > 100 µM (inactive) in each case. Moreover, the GI50 in the assay on KM12, in the assay on RPMI-8226, with HCT-116, in the assay with UACC-257, in the assay with KM-20L2 and in the assay with SK-MEL-2 was > 100 µM (inactive) throughout.

For `CCc1nc(N)nc(C(=O)NCCNC(=O)c2nc(N)nc(CC)c2C)c1C`, the GI50 in the assay with A498 is > 100 µM (inactive); in the assay with HT-29 it was > 100 µM (inactive); in the assay with U-251, > 100 µM (inactive); in the assay on A549, > 100 µM (inactive); with SK-MEL-28 it was > 100 µM (inactive); in the assay with HCT-15, over 100 µM. In addition, the GI50 in the assay on IGROV-1, with 786-0, in the assay on SW-620, in the assay on LOX IMVI, in the assay with HOP-62 and with MOLT-4 was > 100 µM (inactive) each time. Further, the GI50 with KM12, in the assay with RPMI-8226, in the assay with HCT-116, in the assay on UACC-257, in the assay on KM-20L2 and in the assay with SK-MEL-2 was > 100 µM (inactive) throughout.

For the compound `CC(C)C(Nc1c2ccccc2[n+](C)c2ccccc12)C(=O)O` (centres undefined), the GI50 with A498 was > 100 µM (inactive); in the assay on HT-29, > 100 µM (inactive); in the assay with U-251, > 100 µM (inactive); with A549, > 100 µM (inactive); in the assay on HCT-15, over 100 µM; with IGROV-1 it was > 100 µM (inactive). Besides, the GI50 in the assay on 786-0 was > 100 µM (inactive); in the assay with SW-620 it was > 100 µM (inactive); in the assay on HOP-62 it was > 100 µM (inactive); with NCI-H522, 1.3 µM (inactive); with MOLT-4, > 100 µM (inactive); in the assay on KM12 it was > 100 µM (inactive). In addition, the GI50 in the assay with RPMI-8226, with HCT-116, in the assay on UACC-257, with KM-20L2 and in the assay on SK-MEL-2 was > 100 µM (inactive) in each case.

Consider `CCN(CC)c1oc(N(CC)CC)c(C(=O)Nc2ccccn2)c(=O)c1C(C)=O`, for which the GI50 with A498 was > 100 µM (inactive); in the assay on HT-29, > 100 µM (inactive); in the assay with U-251, > 100 µM (inactive); in the assay on A549 it was > 100 µM (inactive); in the assay with SK-MEL-28, > 100 µM (inactive); in the assay on HCT-15, over 100 µM. Besides, the GI50 in the assay with IGROV-1, with 786-0, with SW-620, in the assay with HOP-62, in the assay with NCI-H522 and in the assay with MOLT-4 was > 100 µM (inactive) in each case. In addition, the GI50 with KM12 was > 100 µM (inactive); in the assay on RPMI-8226, > 100 µM (inactive); in the assay on HCT-116, > 100 µM (inactive); in the assay with KM-20L2, > 10 µM (inactive); in the assay on SK-MEL-2, > 100 µM (inactive).

For the compound `COC(=O)[C@@]1(C)/C(=N/NS(=O)(=O)c2ccc(C)cc2)CCC[C@@H]1C`, the GI50 is > 100 µM (inactive) in the assay with A498; > 100 µM (inactive) in the assay with HT-29; > 100 µM (inactive) with U-251; > 100 µM (inactive) with A549; > 100 µM (inactive) in the assay on SK-MEL-28; 16.3 µM with HCT-15. For the same compound, the GI50 with IGROV-1 was > 100 µM (inactive); in the assay with 786-0, > 100 µM (inactive); in the assay on LOX IMVI it was 14.3 µM (inactive); in the assay with HOP-62, > 100 µM (inactive); with NCI-H522, 41.8 µM (inactive); in the assay with MOLT-4, > 100 µM (inactive). Also, the GI50 was > 100 µM (inactive) in the assay with KM12; 30.8 µM (inactive) in the assay on RPMI-8226; > 100 µM (inactive) in the assay on HCT-116; > 100 µM (inactive) in the assay with UACC-257; > 100 µM (inactive) in the assay on KM-20L2; > 100 µM (inactive) with SK-MEL-2.

On to `COc1cc(OC)c(/C=C2\N=C(C)N(Nc3nnc(NN4C(=O)/C(=C/c5c(OC)cc(OC)cc5OC)N=C4C)c4ccccc34)C2=O)c(OC)c1`, for which the GI50 in the assay with A498 is > 100 µM (inactive); in the assay with HT-29, > 100 µM (inactive); in the assay on U-251 it was > 100 µM (inactive); in the assay with A549, > 100 µM (inactive); in the assay with SK-MEL-28, > 100 µM (inactive); in the assay with HCT-15, over 100 µM. Moreover, the GI50 with IGROV-1, in the assay on 786-0, with SW-620, in the assay on LOX IMVI, in the assay with HOP-62 and in the assay on NCI-H522 was > 100 µM (inactive) in each case. In addition, the GI50 in the assay on MOLT-4, with KM12, in the assay on RPMI-8226, with HCT-116, with UACC-257 and in the assay with KM-20L2 was > 100 µM (inactive) in each case.

Consider `O=S(=O)(c1ccccc1)n1cc(C[P+](c2ccccc2)(c2ccccc2)c2ccccc2)c2ccccc21`, for which the GI50 with A498 was 15.6 µM (inactive); in the assay with HT-29, 3.4 µM (inactive); in the assay with U-251, 3.79 µM (inactive); in the assay with A549, 10.9 µM (inactive); in the assay on SK-MEL-28, 2.7 µM (inactive); in the assay with HCT-15 it was 16.6 µM. Moreover, the GI50 with IGROV-1 was 2.08 µM (inactive); with 786-0, 5.04 µM (inactive); with SW-620, 4.59 µM (inactive); with LOX IMVI, 3.57 µM (inactive); with HOP-62, 3.19 µM (inactive); in the assay on NCI-H522, 2.36 µM (inactive). Moreover, the GI50 with MOLT-4 is 4.91 µM (inactive); in the assay with KM12, 3.6 µM (inactive); in the assay on RPMI-8226 it was 0.6 µM (active); in the assay on HCT-116, 3.81 µM (inactive); with KM-20L2, 4.89 µM (inactive); in the assay with SK-MEL-2, 2.3 µM (inactive).

Consider `Nc1ccc(C(=O)NN2C(=O)C(Cl)C2c2cc(Br)ccc2O)cc1` (centres undefined), for which the GI50 in the assay on A498 is > 100 µM (inactive); in the assay on HT-29, 64.6 µM (inactive); in the assay with U-251 it was 32.6 µM (inactive); in the assay on A549 it was > 100 µM (inactive); in the assay on SK-MEL-28, > 100 µM (inactive); with HCT-15, over 100 µM. For the same compound, the GI50 is 36.5 µM (inactive) in the assay on IGROV-1; 78.9 µM (inactive) in the assay with 786-0; > 100 µM (inactive) with SW-620; 41.2 µM (inactive) in the assay on LOX IMVI; > 100 µM (inactive) in the assay on HOP-62; 22.4 µM (inactive) in the assay on NCI-H522. For the same compound, the GI50 is > 100 µM (inactive) with KM12; > 100 µM (inactive) in the assay on RPMI-8226; 15.9 µM (inactive) in the assay with HCT-116; > 100 µM (inactive) in the assay on UACC-257; > 100 µM (inactive) with KM-20L2.

On to `CCCc1nc(N)nc(C(=O)Nc2cccc(C(F)(F)F)c2)c1CC`, for which the GI50 is > 100 µM (inactive) in the assay on A498; > 100 µM (inactive) in the assay on HT-29; > 100 µM (inactive) with U-251; > 100 µM (inactive) in the assay on A549; > 100 µM (inactive) in the assay on SK-MEL-28; over 100 µM in the assay with HCT-15. Also, the GI50 in the assay on IGROV-1, with 786-0, in the assay with SW-620, in the assay with LOX IMVI, in the assay on HOP-62 and with MOLT-4 was > 100 µM (inactive) in each case. In addition, the GI50 in the assay with KM12 is > 100 µM (inactive); in the assay with RPMI-8226, 76.6 µM (inactive); in the assay on HCT-116, > 100 µM (inactive); with UACC-257, > 100 µM (inactive); in the assay with KM-20L2 it was > 100 µM (inactive); with SK-MEL-2, > 100 µM (inactive).

Source of the values: ChEMBL document CHEMBL1201862, “PubChem BioAssay data set” (2004).
